The source of these data is patent US5817690A, “4-aminoethoxy indolone derivatives” (American Home Products Corporation, priority 1997, dated 1998).

SMILES strings stand for the structures.

For orientation: IC50 means the point on the concentration scale where inhibition reaches its midpoint.

The target in this experiment is T1, dopamine D-2 receptor (D2 Spiper) (Rattus norvegicus, UniProt P61169).
T1 construct: homogenized limbic brain tissue is incubated with; from tissue; host or cells: limbic brain tissue homogenate
Briefly: 3H-spiroperidol (Spiper.) binding in homogenized limbic brain tissue, affinity for the dopamine D-2 receptor.

T1 sequence (P61169 whole entry): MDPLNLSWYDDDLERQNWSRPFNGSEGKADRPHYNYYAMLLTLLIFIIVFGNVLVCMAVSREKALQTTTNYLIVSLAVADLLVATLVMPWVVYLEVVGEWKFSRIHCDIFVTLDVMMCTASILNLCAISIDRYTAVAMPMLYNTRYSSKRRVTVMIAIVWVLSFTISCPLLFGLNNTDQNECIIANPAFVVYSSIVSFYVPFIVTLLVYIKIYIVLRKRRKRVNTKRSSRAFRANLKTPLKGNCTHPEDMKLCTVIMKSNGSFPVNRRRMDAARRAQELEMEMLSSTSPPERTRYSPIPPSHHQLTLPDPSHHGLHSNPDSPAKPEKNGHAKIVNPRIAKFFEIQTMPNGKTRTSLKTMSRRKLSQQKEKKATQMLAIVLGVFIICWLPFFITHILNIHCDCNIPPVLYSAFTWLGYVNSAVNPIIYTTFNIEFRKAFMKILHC
Procedure: High affinity for the dopamine D-2 receptor was established by the standard experimental test procedure of Fields, et al., Brain Res., 136, 578 (1977) and Yamamura et al., eds., Neurotransmitter Receptor Binding, Raven Press, New York (1978) wherein homogenized limbic brain tissue is incubated with ^3 H-spiroperidol (Spiper.) and various concentrations of test compound, filtered and washed and shaken with Hydrofluor scintillation cocktail (National Diagnostics) and counted in a Packard 460 CD scintillation counter.

As for `CCCCNCCOc1ccc(Cl)c2c1CC(=O)N2` [Example 8, 4-(2-Butylamino-ethoxy)-7-chloro-1,3-dihydro-indol-2-one], the IC50 was found to be 144 nM.

With `O=C1Cc2c(OCCN3CCc4ccccc4C3)ccc(Cl)c2N1` [Example 9, 7-Chloro-4-[2-(3,4-dihydro-1H-isoguinolin-2-yl)-ethoxy]-1,3-dihydro-indol-2-one], the IC50 worked out at 81.4 nM.

Regarding `CN(CCCC(=O)c1ccc(F)cc1)CCOc1cccc2c1CC(=O)N2` [Example 27, 4-(2-{[4-(4-Fluoro-phenyl)-4-oxo-butyl]-methyl-amino}-ethoxy)-1,3-dihydro-indol-2-one], the IC50 was 346 nM. This IC50 is about 4.3-fold higher than that of the compound before.

Take `O=C1Cc2c(OCCNCC3CCCCC3)ccc(F)c2N1` [Example 16, 4-[2-(Cyclohexylmethyl-amino)-ethoxy)-7-fluoro-1,3-dihydro-indol-2one]: the IC50 was determined as 99.4 nM.

`O=C1Cc2c(cccc2OCCNCc2ccccc2)N1` [Example 1, 4-(2-Benzylaminoethoxy)-1,3-dihydro-indol-2-one] registered an IC50 of 145 nM.

In turn, `O=C1Cc2c(OCCNCc3ccccc3)ccc(Cl)c2N1` [Example 14, 4-(2-Benzylamino-ethoxy)-7-chloro-1,3-dihydro-indol-2-one] showed an IC50 of 36 nM.

Compound `Cc1ccc(CNCCOc2ccc(Cl)c3c2CC(=O)N3)cc1` [Example 6] returned a half-inhibitory concentration (IC50) of 37.5 nM. The IC50 values of the last two compounds are within 1.5-fold of each other.

As to `CN(CCOc1ccc(Cl)c2c1CC(=O)N2)Cc1ccccc1` [Example 7, 4-[2-(N-Benzyl-N-methyl-amino)-ethoxy]-7-chloro-1,3dihydro-indol-2-one], the IC50 came to 231 nM.

Turning to `O=C1Cc2c(OCCNCc3ccc(F)cc3)ccc(Cl)c2N1` [Example 4], the half-maximal inhibitory concentration (IC50) stood at 176 nM.

On to `O=C1Cc2c(OCCNCc3ccc(Cl)cc3)ccc(Cl)c2N1` [Example 5], for which the IC50 is 51.9 nM.

The compound `NCCOc1cccc2c1CC(=O)N2` [Example 3, 4-(2-Amino-ethoxy)-1,3-dihydro-indol-2-one] displayed an IC50 of 3420 nM.

The compound `O=C1Cc2c(OCCNCc3ccccc3)ccc(F)c2N1` [Example 15, 4-(2-Benzylamino-ethoxy)-7-fluoro-1,3-dihydro-indol-2-one] came in with a 50% inhibitory concentration (IC50) of 68.7 nM.

Compound `O=C1Cc2c(cccc2OCCNCCCCc2ccccc2)N1` [Example 13] yielded an IC50 of 25 nM. Compared with the last compound, the IC50 is about 2.7-fold lower.

As for `CNCCOc1cccc2c1CC(=O)N2` [Example 2, 4-(2-Methylamino-ethoxy)-1,3-dihydro-indol-2-one], the IC50 amounted to 918 nM.

Take `CN(CCOc1cccc2c1CC(=O)N2)Cc1ccccc1` [Example 25, 4-[2-(Benzyl-methyl-amino)-ethoxy]-1,3-dihydro-indol-2-one]: the IC50 was 645 nM.
